What was measured:
[1] = tested on: cherry tomato plant “mini carol”; experiment: Growth of cherry tomato seedlings with D-allose in nutrient solution; format: in vivo; parameters: key to Number of opening flowers: z: Bud formation could not be confirmed; settings: for Fresh leaf weight / Fresh stem weight / Number of leaves / Number of opening flowers / Stem diameter / Stem length: 4 weeks
Protocol: On Jul. 13, 2004, seeds of a cherry tomato plant “mini carol” (Sakata Seed Co., Ltd.) were sown one by one in the respective holes using 30 holes among the 253 holes of a rockwool (280 mm (width)×580 mm (length)), which was placed in a plastic container with a capacity of 8 L. In this plastic container, 1 L of each nutrient solution in which a fertilizer (Otsuka No. 1 (1.5 g/L) and Otsuka No. 2 (1.0 g/L)) was dissolved was poured, then, the cultivation was carried out in a glass chamber without heating. With regard to a treated plot, 7 treated plots in which a treatment liquid obtained by adding D-allose at 0 to 5 mM to the fertilizer nutrient solution was poured in the plastic container from July 20 when the seeds germinated completely were prepared. Incidentally, the treatment liquid was added in the same amount to the respective treated plots according to need. A survey was carried out with regard to the growth at 4 weeks after the initiation of the treatment.

[2] = tested on: rice plant (variety: Nihonbare); experiment: Growth of rice seedlings in hydroponic culture with D-psicose; format: in vivo
[3] = tested on: Fusarium oxysporum (IFO 31213 strain); format: in vivo, tomato plant (variety: “House Momotaro”)
Protocol: By using a tomato plant and a strain of Fusarium oxysporum, which is a typical pathogenic bacterium of tomato, an effect of D-psicose during infection in a stage of raising seedlings thereof was examined.
To be more specific, seeds of a tomato plant (variety: “House Momotaro”) were subjected to an immersion treatment by immersing them in a 0.01% (w/v) D-psicose solution or a 0.007% (w/v) probenazole solution for 15 minutes while stirring slowly, followed by air-drying on sterile gauze, and then used as treated seeds. In the medium culture for raising seedlings (pete:pearlite:vermiculite=2:1:1), 0.01% (w/v) D-psicose or 0.007% (w/v) probenazole was mixed, and the soil was placed in black polypot plant containers with a diameter of 9 cm, and then, 4 seeds of the above treated seeds were sown in each pot. The seeds (20 seeds in total) were sown in 5 pots for each test plot. After sowing, the pots were placed in a growth chamber at 23° C. and 5,000 Lux (12-hour day length), and raising of seedlings was initiated. At 1 month and 2 months after the initiation of raising of seedlings, a suspension of mycelium of Fusarium oxysporum (IFO 31213 strain) was inoculated around the roots, whereby infection with Fusarium oxysporum was caused. After the inoculation of Fusarium oxysporum, the temperature was raised to 30° C., and cultivation was continued. At about 4 months after sowing, a survey was carried out with regard to the survival rate of plants, the conditions of browning of vascular bundles and roots, the stem diameter and the like.

[4] = tested on: tomato plant (variety: “Momotaro”); experiment: Spraying of sugar solution during tomato cultivation; format: in vivo; settings: 0.2% (w/v) sprayed weekly
Protocol: In the process of cultivation of tomato, an effect of spraying D-psicose was examined.
A tomato plant (variety: “Momotaro”) was used in an experiment. Tomato seedlings were transplanted for permanent planting to No. 7 unglazed pots filled with “Hana to Yasai no Tsuchi (garden soil for flowers and vegetables)” and a cultivation test was carried out in a vinyl house equipped with a heating device. As a fertilizer, 4 granules of IB compound fertilizer per pot were given around the roots, and irrigation was carried out by automatically feeding 500 ml of water twice a day. During the cultivation, on a weekly basis, water, a 0.2% (w/v) D-glucose solution or a 0.2% (w/v) D-psicose solution was sprayed onto the whole plant. As for the number of tomato plants, 10 plants were used for each group, and the cultivation was carried out twice, i.e., in summer (from April 20 to Aug. 9, 2004) and in winter (from Nov. 4, 2004 to Mar. 14, 2005). A survey was carried out with regard to the growth conditions during the cultivation and yield of fruits.

[5] = tested on: tomato (Home Momotaro), sunny lettuce (Red Wave), morning glory (Tairin Zaki Kongo); experiment: Seed germination, short-time and continuous treatment (Experiment 2); format: in vivo; settings: continuous treatment with 1%
Protocol: In order to clarify an effect of a short-time treatment, 50 seeds of Salsola komarovii, tomato (Home Momotaro) and sunny lettuce (Red Wave), and 20 seeds of morning glory (Tairin Zaki Kongo) were immersed in any of deionized water, 1% D-psicose, 1% D-allose and 1% L-galactose for 24 hours (25° C., dark), respectively, then, they were lightly washed with deionized water. Then, the seeds were sown in a dish with a diameter of 9 cm having a filter paper placed therein, and germinated under the same condition by poring 5 to 10 ml of deionized water therein. Further, for the comparison, a continuous treatment with 1% D-psicose was carried out in accordance with the same procedure.

[6] = 0.5 mM, hydroponic culture for 10 days

O=C[C@H](O)[C@H](O)[C@H](O)[C@H](O)CO [D-allose]
flowering ([1]; 0.01 mM): promoting flowering | promotion of growth in the stem length in comparison with the untreated plot ([1]; 0.01 mM): 33% | promotion of growth in the stem weight in comparison with the untreated plot ([1]; 0.01 mM): 67% | growth ([1]; 5 mM): some growth inhibition | Fresh leaf weight ([1]; D-allose 0.01 mM): 10.9 g | Fresh stem weight ([1]; D-allose 0.01 mM): 16.4 g | Number of leaves ([1]; D-allose 0.01 mM): 9.3 | Number of opening flowers ([1]; D-allose 0.01 mM): 0.6 | Stem diameter ([1]; D-allose 0.01 mM): 5.3 mm | Stem length ([1]; D-allose 0.01 mM): 69.1 cm | Fresh leaf weight ([1]; D-allose 0.05 mM): 6.9 g | Fresh stem weight ([1]; D-allose 0.05 mM): 11.7 g | Number of leaves ([1]; D-allose 0.05 mM): 8.9 | Number of opening flowers ([1]; D-allose 0.05 mM): 0.4 | Stem diameter ([1]; D-allose 0.05 mM): 4.3 mm | Stem length ([1]; D-allose 0.05 mM): 60.9 cm | Fresh leaf weight ([1]; D-allose 0.1 mM): 8.6 g | Fresh stem weight ([1]; D-allose 0.1 mM): 11.1 g | Number of leaves ([1]; D-allose 0.1 mM): 9.0 | Number of opening flowers ([1]; D-allose 0.1 mM): 0.0 | Stem diameter ([1]; D-allose 0.1 mM): 4.3 mm | Stem length ([1]; D-allose 0.1 mM): 56.7 cm | Fresh leaf weight ([1]; D-allose 0.5 mM): 8.3 g | Fresh stem weight ([1]; D-allose 0.5 mM): 11.2 g | Number of leaves ([1]; D-allose 0.5 mM): 8.3 | Number of opening flowers ([1]; D-allose 0.5 mM): 0.0 | Stem diameter ([1]; D-allose 0.5 mM): 4.5 mm | Stem length ([1]; D-allose 0.5 mM): 57.0 cm | Fresh leaf weight ([1]; D-allose 1.0 mM): 9.7 g | Fresh stem weight ([1]; D-allose 1.0 mM): 13.7 g | Number of leaves ([1]; D-allose 1.0 mM): 9.6 | Number of opening flowers ([1]; D-allose 1.0 mM): 0.0 | Stem diameter ([1]; D-allose 1.0 mM): 4.8 mm | Stem length ([1]; D-allose 1.0 mM): 59.0 cm | Fresh leaf weight ([1]; D-allose 5.0 mM): 4.8 g | Fresh stem weight ([1]; D-allose 5.0 mM): 6.7 g | Number of leaves ([1]; D-allose 5.0 mM): 7.0 | Number of opening flowers ([1]; D-allose 5.0 mM): z | Stem diameter ([1]; D-allose 5.0 mM): 4.2 mm | Stem length ([1]; D-allose 5.0 mM): 40.4 cm

O=C(CO)[C@H](O)[C@H](O)[C@H](O)CO [D-psicose]
Number of roots ([2]; 0.5 mM): no change | Number of roots ([2]; 0.5 mM D-psicose, Day 10 after germination, non-treated 7.00 ± 0.6): 7.00 ± 0.6 roots | Seed root length ([2]; 0.5 mM D-psicose, Day 10 after germination, non-treated 7.58 ± 0.23): 5.15 ± 0.26 cm | Plant length ([2]; 0.5 mM D-psicose, Day 10 after germination, non-treated 12.08 ± 0.21): 5.29 ± 0.58 cm | root length inhibited by [2, 6]: 67% | seedling length inhibited by [2, 6]: 43% | Plant length, percentage of the relative value to untreated plot ([2]; 7 days (1 week) after transplantation to pot, after 0.5 mM D-psicose): 52.4% | Plant length ([2]; 7 days after transplantation to pot, after 0.5 mM D-psicose treatment, untreated 31.4 ± 0.5): 16.5 ± 2.4 cm | Plant length ([2]; 14 days after transplantation to pot, after 0.5 mM D-psicose treatment, untreated 44.7 ± 0.1): 35.3 ± 2.1 cm | inhibition at 100 µM ([2]; Oryza sativa, 0.1 mM): 30% | time to recover to the size equal to that of the untreated plot after transplanting to soil ([2]; after 0.5 mM treatment, raised without D-psicose): about 3 weeks | growth relative to the untreated plot ([2]; until 0.05 mM (0.005 to 0.05 mM)): > 98% | degree of chemical damage (yellow discoloration of leaves) ([3]; in vivo): smaller than that of the case of probenazole | Vascular bundle browning ratio ([3]; seed immersion (0.01% D-psicose or 0.007% probenazole), no seed treatment 25%): 5% | Stem diameter ([3]; seed immersion treatment): increased | inhibitory effect on Fusarium wilt ([3]; seed immersion with D-psicose solution): equal to or more than that of probenazole | significant effect of spraying on cultivation ([4]; summer): not observed | number of fruits ([4]; winter): increase | yield of fruits ([4]; winter): increase | germination [5]: inhibited
